Consider four compounds from patent publication US20230278972A1, “SUBSTITUTED HALOALKYL SULFONANILIDE HERBICIDES” (FMC Corporation, priority 2020, published 2023).

Common to all, as to type: in vivo
Experiment [1] deals with Pigweed, Palmer (palmer amaranth, palmer pigweed, Amaranthus palmeri). The experiment is described as follows: Test A1 postemergence, Pigweed, Palmer. The following applies: 0 to 100 scale (0 no effect, 100 complete control); for Pigweed, Palmer plant response rating: 31 g ai/ha, postemergence; for Plant response rating, Pigweed, Palmer: Postemergence, 125 g ai/ha, 10 days. A digest of the protocol:
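Plants were grown in a loam soil/sand blend, with test chemicals formulated in a non-phytotoxic solvent mixture containing surfactant. Preemergence treatment (corn) was a directed soil spray at planting. Postemergence treatment was applied to plants 2 to 10 cm tall at the one- to two-leaf stage.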

Experiment [2] relates to blackgrass (Alopecurus myosuroides). Kind of experiment: Test A1 preemergence, blackgrass. Put shortly: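 Plants grown in pots of loam/sand mix; preemergence = soil-directed spray on seeded pots, postemergence = spray at 1–2 leaves, height 2–10 cm; test chemicals formulated in non-phytotoxic solvent with surfactant.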
Experiment [3] relates to goosegrass (Eleusine indica). Kind of experiment: Test A1 postemergence, goosegrass. The following applies: 0 to 100 scale (0 no effect, 100 complete control); for Goosegrass plant response rating: 31 g ai/ha, postemergence; for Plant response rating, Goosegrass: Postemergence, 125 g ai/ha, 10 days. A digest of the protocol: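 Both timings started from seed in a loam-sand blend. Preemergence pots got a directed soil application immediately; postemergence pots were sprayed when seedlings had one or two leaves and stood 2–10 cm. Each compound was prepared in a non-phytotoxic solvent plus surfactant.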

[4] abbreviates: 31 g ai/ha, 0 to 100 scale (0 no effect, 100 complete control).
[5] abbreviates: 125 g ai/ha, 0 to 100 scale, 0 no effect, 100 complete control.

Turning to `Cc1cc(C)c(N2CCC3(CCC(C)CC3)C2=O)cc1NS(=O)(=O)C(F)(F)F` (stereo not drawn) [Compound 402], in experiment [1], the “Pigweed, Palmer plant response rating” value was 20 and the “Plant response rating, Pigweed, Palmer” value is reported as 70. The “Plant response rating, Blackgrass” value in experiment [2] (setting [4]) worked out at 70. The “Plant response rating, Blackgrass” value in experiment [2] (setting [5]) stood at 80. Further, in experiment [3], the “Goosegrass plant response rating” value was found to be 20 and the “Plant response rating, Goosegrass” value was determined as 70.
Consider `Cc1cc(C)c(N(COC(=O)C(C)(C)C)S(=O)(=O)C(F)(F)F)cc1N1CCC2(CCC(C(F)(F)F)CC2)C1=O` (stereo not drawn) [Compound 403], for which, in experiment [1], the “Pigweed, Palmer plant response rating” value stood at 0 and the “Plant response rating, Pigweed, Palmer” value amounted to 30. In addition, in experiment [2] (setting [4]), the “Plant response rating, Blackgrass” value worked out at 0. For the same compound, the “Plant response rating, Blackgrass” value in experiment [2] (setting [5]) was determined as 0. Besides, in experiment [3], the “Goosegrass plant response rating” value worked out at 0 and the “Plant response rating, Goosegrass” value was 50.
As for `Cc1cc(C)c(N2Cc3cccc(C)c3C2=O)cc1NS(=O)(=O)Cl` [Compound 408], in experiment [1], the “Pigweed, Palmer plant response rating” value came to 30 and the “Plant response rating, Pigweed, Palmer” value was determined as 50. The “Plant response rating, Blackgrass” value in experiment [2] (setting [4]) worked out at 90. In addition, the “Plant response rating, Blackgrass” value in experiment [2] (setting [5]) is recorded as 100. In addition, in experiment [3], the “Goosegrass plant response rating” value stood at 90 and the “Plant response rating, Goosegrass” value was found to be 90.
Take `COc1cccc2c1C(=O)N(c1cc(N(COC(=O)C(C)(C)C)S(=O)(=O)Cl)c(C)cc1C)C2` [Compound 413]: in experiment [1], the “Pigweed, Palmer plant response rating” value is reported as 20 and the “Plant response rating, Pigweed, Palmer” value was 30. Further, the “Plant response rating, Blackgrass” value in experiment [2] (setting [4]) stood at 20. The “Plant response rating, Blackgrass” value in experiment [2] (setting [5]) worked out at 20. In experiment [3], the “Goosegrass plant response rating” value came out at 0 and the “Plant response rating, Goosegrass” value was determined as 0.
